The values below come from patent US20240189291A1, “Prevention And Treatment Of Atrial Fibrillation/Flutter With Gamma-Ketoaldehyde Scavengers” (Vanderbilt University, priority 2016, published 2024).

The subject of data set [1] is hypertensive (ang II) mice. In words: Murine model of ang II-mediated hypertension with inducible AF. The class given is in vivo. The conditions noted are these: for AF burden / AF susceptibility (total inducible AF): 2-HOBA and 4-HOBA 1G/L in drinking water. The text has this: Experimental hypertension: Evidence for IsoLGs in AF susceptibility. Oxidative stress and PAO burden in human atrium are linked to HTN. […] The present inventors have determined that IsoLGs are mediators for AF susceptibility in HTN using a murine model (2 wk mini-pump infusion of angiotensin II [ang II]), in which mice develop sustained HTN and inducible AF. […] Importantly, mass spectrometry data have confirmed this finding (FIG. 5B), with a striking 100 fold increase in atrial adduct formation during HTN (2-3 fold greater increase than that seen in Alzheimer's brain). In addition, PAOs accumulated in the atria of hypertensive compared to control mice (FIGS. 5C and D). […] As expected, hypertensive mice developed inducible AF compared to control (FIG. 7). […] Normalization of BP in ang II-treated mice with hydralazine/HCTZ prevented AF susceptibility, while mechanical stretch of atrial myocytes generated both LG adducts (FIG. 9) and PAOs (not shown), signifying a critical role of atriomyocyte stretch. The AF substrate was reversible by 2 wks after stopping ang II (85% reduction in total AF burden), with partial normalization of BP (74%; n=13, data not shown). Of note, 2-HOBA had no effects on any ECG parameters in HTN mice.

The subject of data set [2] is atrial HL-1 cells. In words: Cytotoxicity of ANP oligomers to atrial HL-1 cells (ATP production). The conditions noted are these: peptide oligomers, 24 hr exposure; listed as ANP oligomers. It is filed as cell-based. On the procedure:
Mutant ANP is highly fibrillogenic, generating cytotoxic PAOs. To compare oligomer formation between WT and mutant ANP, Western analysis was performed on peptides allowed to oligomerize at 23° C. for variable time points. […] For amyloid β1-42, oligomer toxicity is a transient, time-dependent phenomenon, in the progression from monomers to PAOs to fibrils. To investigate this process for WT and mutant ANP, peptides incubated in vitro to generate oligomers over different time periods were incubated with atrial HL-1 cells for 24 hr. For WT ANP, proteotoxicity (manifested by decreased cellular ATP production) was maximal for PAOs generated during a 2 wk incubation, while for mutant ANP, the time point of maximal oligomer cytotoxicity occurred much earlier, within ˜3 d (FIG. 14). Cytotoxicity was confirmed by measuring cellular oxygen consumption rate using extracellular flux analysis (Seahorse Bioscience XFE96). Thus, oligomers formed by both WT and mutant ANP cause atrial myocyte dysfunction, as evidenced by reduced cardiomyocyte ATP production, with proteotoxicity occurring earlier for mutant compared to WT ANP, consistent with accelerated oligomer formation.

Data set [3] concerns atrial HL-1 cells. In words: Rapid pacing of cultured atrial HL-1 cells (cellular model simulating AF). The class given is cell-based. The source says:
Protein oligomers and IsoLGs in a cellular model simulating AF. […] Moreover, exposure of unpaced cells to a physiologic concentration of IsoLGs caused cytosolic PAO production, similar to that observed with rapid pacing (FIG. 4, top panels).

In data set [4] the test system is mice fed a high-fat diet (HFD). The experiment in a line: Mouse model of diet-induced obesity (DIO) with inducible AF. The class given is in vivo. The conditions noted are these: 12 weeks, co-treatment. The source says:
Experimental obesity: Evidence for IsoLGs in AF susceptibility. Given that obesity is also linked to inflammation and oxidative stress, we have begun studies to investigate the role of IsoLGs in a mouse model of diet-induced obesity (DIO). […] Thus, in the early stages of both HTN and obesity, the present inventors show a role for IsoLGs in the AF substrate. In both HTN and obesity, AF was inducible in the absence of fibrosis, with reversibility in HTN. These findings imply that IsoLGs constitute an early pathologic target, and that their inhibition could potentially prevent the development of AF. In the proposed studies, we will confirm the critical role of IsoLGs using rigorous experimental approaches. For these studies, we use well-characterized murine models of HTN and obesity described above and routinely employed.
The following data are for 12 week-treated animals.

Data set [5] relates to hypertensive (ang II) mice. The conditions noted are these: ang II-mediated HTN in mice, earlier work (Kirabo and colleagues), cited from earlier work.
Data set [6] has as its system IsoLGs. The conditions noted are these: cited from earlier work.
Data set [7] deals with ROS. The conditions noted are these: cited from earlier work.
The target of data set [8] is COX1 (Homo sapiens, UniProt P23219). The conditions noted are these: cited from earlier work.
Sequence of COX1 (P23219 24-599): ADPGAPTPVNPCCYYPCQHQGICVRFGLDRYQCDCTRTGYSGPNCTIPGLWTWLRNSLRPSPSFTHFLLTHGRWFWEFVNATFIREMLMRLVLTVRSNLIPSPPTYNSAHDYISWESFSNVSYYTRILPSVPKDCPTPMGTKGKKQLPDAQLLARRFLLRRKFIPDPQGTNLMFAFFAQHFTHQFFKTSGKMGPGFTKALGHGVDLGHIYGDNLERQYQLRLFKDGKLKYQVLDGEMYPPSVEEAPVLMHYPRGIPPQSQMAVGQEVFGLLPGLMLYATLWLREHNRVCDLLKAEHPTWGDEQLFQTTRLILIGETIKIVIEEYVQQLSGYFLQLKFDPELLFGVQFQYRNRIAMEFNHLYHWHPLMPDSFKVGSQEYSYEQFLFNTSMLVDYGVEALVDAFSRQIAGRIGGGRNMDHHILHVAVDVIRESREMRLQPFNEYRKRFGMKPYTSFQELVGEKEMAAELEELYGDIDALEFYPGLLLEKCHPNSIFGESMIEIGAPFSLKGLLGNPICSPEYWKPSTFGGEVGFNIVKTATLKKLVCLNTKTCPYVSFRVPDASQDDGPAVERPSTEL
The target in data set [9] is T1, COX2 (Homo sapiens, UniProt P35354).
T1 sequence (P35354 18-604): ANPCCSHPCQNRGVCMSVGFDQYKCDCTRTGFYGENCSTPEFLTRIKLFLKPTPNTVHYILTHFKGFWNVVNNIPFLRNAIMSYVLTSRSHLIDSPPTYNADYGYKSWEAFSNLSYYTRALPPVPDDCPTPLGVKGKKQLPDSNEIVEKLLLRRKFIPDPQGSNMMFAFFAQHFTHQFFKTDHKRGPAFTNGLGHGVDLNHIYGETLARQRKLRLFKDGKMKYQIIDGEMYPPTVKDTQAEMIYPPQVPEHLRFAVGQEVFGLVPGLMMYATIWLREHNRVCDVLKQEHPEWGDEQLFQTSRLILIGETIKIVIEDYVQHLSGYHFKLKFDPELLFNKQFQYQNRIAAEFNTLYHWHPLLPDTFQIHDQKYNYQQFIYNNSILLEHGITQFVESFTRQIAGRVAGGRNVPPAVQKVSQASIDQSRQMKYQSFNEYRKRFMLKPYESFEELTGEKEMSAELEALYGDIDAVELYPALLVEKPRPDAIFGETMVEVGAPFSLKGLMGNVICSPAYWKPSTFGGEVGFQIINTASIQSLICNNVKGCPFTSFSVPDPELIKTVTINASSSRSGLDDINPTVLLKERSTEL
The conditions noted are these: cited from earlier work.

The test system of data set [10] is mouse model of Alzheimer's disease. The conditions noted are these: cited from earlier work.
For data set [11] the following is noted: in vitro studies, in vivo studies in mice, pre-clinical toxicology studies; cited from earlier work.
Where [12] appears, read: ang II-treated hypertensive mice.
The mark [13] stands for this setting: rapidly paced atrial HL-1 cells in presence of compound.
Setting [14] is: ang II-treated hypertensive mice, 1G/L in drinking water.

Values joined by “and” are separate entries in the source; they are usually repeats but may differ in a detail not shown here. Identical values can stand only once. “Also recorded” adds a separate entry of the source. Like-named read-outs stand apart in the source and are kept apart here.

On to “hydralazine/hydrocholorothiazide [hydralazine/HCTZ, reference compound]”, for which the “AF burden / AF susceptibility (total inducible AF)” value (from here on “AF burden / AF susceptibility”) in [1] (setting [12]) is reported as “prevented”. The “blood pressure (BP)” value in data set [1] (ang II-treated mice) is on record as “Normalization”.
As to “WT ANP: wild-type atrial natriuretic peptide (28 amino acids), incubated to form oligomers”, the “cytotoxicity (ATP production by atrial HL-1 cells)” value in [2] is “reduced ATP production; also recorded: cytotoxic”.
As for `NCc1ccccc1O` [2-HOBA, 2-hydroxybenzylamine], in [3] (setting [13]), the PAO formation result was “virtually eliminated and 2-HOBA prevents”; the “myocyte stress response (transcriptional upregulation of Nppb and Hspa1a)” value is “blunted”. Moreover, the isoLG adducts in data set [3] (rapidly-beating atrial cell model) is listed as 2-HOBA prevents. In [1] (HTN mice), the ECG parameters result is on record as “no effects”. In addition, in data set [1] (setting [14]), the “atrial IsoLG adducts” value was “prevents and markedly reduced and 2-HOBA reduces”; the “atrial PAO formation” value is “prevents and markedly reduced and 2-HOBA reduces”. Moreover, the “AF burden / AF susceptibility” value in data set [1] (setting [12]) is “suppressed and markedly reduced and 2-HOBA reduces”. In addition, in data set [4], the “AF burden (total inducible AF)” value is “suppressed and markedly suppressed and 2-HOBA reduces”. The “blood pressure / antihypertensive effect” value in [5] is listed as “effectively lowered; also recorded: prominent antihypertensive effect”. Besides, the “blood pressure / antihypertensive effect” value in [5] (listed as salicylamine) was “remarkable therapeutic benefit”. In data set [6], the dicarbonyl scavenging activity entry is on record as “can also scavenge other injurious lipid dicarbonyl compounds such as MDA” and the “rate of reaction with IsoLGs compared to IsoLG binding to the ε-amine of lysine” value is “much more rapid rate (by several orders of magnitude)”. For the same molecule, in data set [7], the ROS levels entry was “does not reduce ROS levels significantly”. Besides, in [7] (during in vitro oxidation), the “concentrations of O2·− or F2-Isoprostanes” value was “do not affect”. In data set [8], the “inhibition of COX1 enzyme” value is reported as “does not inhibit”. Further, the “inhibition of COX2 enzyme” value in data set [9] is “does not inhibit”. In addition, in data set [10], the “development of cognitive impairment / therapeutic benefit” value was “prevent”. The “development of cognitive impairment / therapeutic benefit” value in data set [10] (listed as salicylamine) is reported as “remarkable therapeutic benefit”. In addition, in [11], the safety profile entry was “excellent safety profile”.
In the case of `NCc1ccc(O)cc1` [4-HOBA, reference compound], the “AF burden / AF susceptibility” value in [1] (setting [12]) was “had no effect”. Further, in data set [4], the “AF burden (total inducible AF)” value is “had no effect; also recorded: did not”. The dicarbonyl scavenging activity entry in data set [6] is “cannot scavenge dicarbonyls”.
